Assay results taken from ChEMBL document CHEMBL3351613, “Indolylarylsulfones carrying a heterocyclic tail as very potent and broad spectrum HIV-1 non-nucleoside reverse transcriptase inhibitors” (J Med Chem, 2014).
The source made the active and inactive calls. No cut-off for these calls is given here.

Key:
[1] = tested on: Human immunodeficiency virus 1; experiment: Antiviral activity against HIV1 NL4-3 infected in human MT4 cells assessed as reduction in virus-induced cell death by MTT assay; assay type: functional, organism-based; details: Human immunodeficiency virus 1, NL4-3, MT4
[2] = tested on: Human immunodeficiency virus 1; experiment: Antiviral activity against HIV1 NL4-3 expressing reverse transcriptase K103N mutant infected in human MT4 cells assessed as reduction in virus-induced cell death by MTT assay; assay type: functional, organism-based; details: Human immunodeficiency virus 1, NL4-3, MT4
[3] = tested on: Human immunodeficiency virus 1; assay type: functional, organism-based; details: Human immunodeficiency virus 1, NL4-3, MT4
[4] = tested on: Human immunodeficiency virus 1; assay type: functional, organism-based; details: Human immunodeficiency virus 1, NL4-3, MT4; remark: listed apart in the source
[5] = tested on: Human immunodeficiency virus 1; assay type: functional, organism-based; details: Human immunodeficiency virus 1, NL4-3, MT4; remark: listed apart in the source
[6] = target: T1, Human immunodeficiency virus type 1 reverse transcriptase (Human immunodeficiency virus 1, UniProt Q72547)
[7] = target: Human immunodeficiency virus type 1 reverse transcriptase (Human immunodeficiency virus 1, UniProt Q72547, V106A); experiment: Inhibition of […] HIV1 reverse transcriptase V106A mutant assessed as reduction in enzyme activity
[8] = tested on: Human immunodeficiency virus 1; experiment: Antiviral activity against HIV1 Clade A (UG273) infected in human PBMC assessed as reduction in p24 antigen production; assay type: functional, organism-based; details: Human immunodeficiency virus 1, Clade A (UG273)
[9] = tested on: Human immunodeficiency virus 1; experiment: Antiviral activity against HIV1 Clade B (BaL) infected in human PBMC assessed as reduction in p24 antigen production; assay type: functional, organism-based; details: Human immunodeficiency virus 1, Clade B (BaL)
[10] = tested on: Human immunodeficiency virus 1; experiment: Antiviral activity against HIV1 Clade C (DJ259) infected in human PBMC assessed as reduction in p24 antigen production; assay type: functional, organism-based; details: Human immunodeficiency virus 1, Clade C (DJ259)
[11] = tested on: Human immunodeficiency virus 1; experiment: Antiviral activity against HIV1 Clade D (UG270) infected in human PBMC assessed as reduction in p24 antigen production; assay type: functional, organism-based; details: Human immunodeficiency virus 1, Clade D (UG270)
[12] = tested on: Human immunodeficiency virus 1; experiment: Antiviral activity against HIV1 Clade A/E (ID12) infected in human PBMC assessed as reduction in p24 antigen production; assay type: functional, organism-based; details: Human immunodeficiency virus 1, Clade A/E (ID12)
[13] = tested on: Human immunodeficiency virus 1; experiment: Antiviral activity against HIV1 Clade F (BZ162) infected in human PBMC assessed as reduction in p24 antigen production; assay type: functional, organism-based; details: Human immunodeficiency virus 1, Clade F (BZ162)
[14] = tested on: Human immunodeficiency virus 1; experiment: Antiviral activity against HIV1 Clade G (HH8793) infected in human PBMC assessed as reduction in p24 antigen production; assay type: functional, organism-based; details: Human immunodeficiency virus 1, Clade G (HH8793)
[15] = tested on: Human immunodeficiency virus 2; experiment: Antiviral activity against HIV2 ROD infected in human PBMC cells assessed as reduction in p24 antigen production; assay type: functional, organism-based; details: ISOLATE ROD
[16] = target: T1, Human immunodeficiency virus type 1 reverse transcriptase; remark: listed apart in the source
Description: Inhibition of wild type HIV1 reverse transcriptase assessed as reduction in enzyme activity

[17] = target: Human immunodeficiency virus type 1 reverse transcriptase (Human immunodeficiency virus 1, UniProt Q72547, K103N)
Description: Inhibition of wild type HIV1 reverse transcriptase K103N mutant assessed as reduction in enzyme activity

[18] = target: Human immunodeficiency virus type 1 reverse transcriptase (Human immunodeficiency virus 1, UniProt Q72547, L100I)
Description: Inhibition of wild type HIV1 reverse transcriptase L100I mutant assessed as reduction in enzyme activity

[19] = Cytotoxic activity against human MT4 cells by MTT assay; assay type: cell-based
[20] = target: Human immunodeficiency virus type 1 reverse transcriptase (Human immunodeficiency virus 1, UniProt Q72547, Y181I)
in vitro = details: human, MT4 cells
Description: Selectivity index, ratio of CC50 for human MT4 cells to EC50 for HIV1 NL4-3 infected in human MT4 cells

[21] = tested on: Human immunodeficiency virus 1; experiment: Antiviral activity against HIV1 3B infected in human CEM cells assessed as protection against virus-induced cytopathicity by giant cell formation assay; assay type: functional, organism-based; details: Human immunodeficiency virus 1, 3B, CCRF-CEM
[22] = tested on: Human immunodeficiency virus 2; experiment: Antiviral activity against HIV2 ROD infected in human CEM cells assessed as protection against virus-induced cytopathicity by giant cell formation assay; assay type: functional, organism-based; details: Human immunodeficiency virus 2, ISOLATE ROD, CCRF-CEM
[23] = tested on: Human immunodeficiency virus 1; experiment: Antiviral activity against HIV1 NL4-3 expressing reverse transcriptase L100I mutant infected in human MT4 cells assessed as reduction in virus-induced cell death by MTT assay; assay type: functional, organism-based; details: Human immunodeficiency virus 1, NL4-3, MT4

Compound | EC50 [1] [nM] | EC50 [2] [nM] | EC50 [3] [nM] | EC50 [4] [nM] | EC50 [5] [nM] | IC50 [16] [nM] | IC50 [17] [nM] | IC50 [18] [nM] | CC50 [19] [nM] | IC50 [20] [nM] | selectivity ratio (in vitro) | EC50 [21] [nM] | EC50 [22] [nM] | EC50 [23] [nM] | also measured
Cc1cc(C)cc(S(=O)(=O)c2c(C(=O)N[C@@H](C)c3ccncc3)[nH]c3ccc(Cl)cc23)c1 | 0.2 | 4.3 | 128 | 5170 | 4120 | 40 | 700 | 20 |  |  |  |  |  |  | IC50 [6]: 110000 nM; IC50 [7]: 55 nM; EC50 [8]: 5.2 nM; EC50 [9]: 2 nM; EC50 [10]: 1.4 nM; EC50 [11]: 4.3 nM; EC50 [12]: 4.1 nM; EC50 [13]: 4.9 nM; EC50 [14]: 3.6 nM; Activity [15]: inactive
Cc1cc(C)cc(S(=O)(=O)c2c(C(=O)NCc3ccncn3)[nH]c3ccc(Cl)cc23)c1 | 0.22 |  | 2.2 | 50.6 | 132 | 42 | 96 |  | > 55000 | 4.2 | > 250000 |  |  |  | 
Cc1cc(C)cc(S(=O)(=O)c2c(C(=O)NNc3ccncc3)[nH]c3ccc(Cl)cc23)c1 | 41.7 | 16000 | > 20000 |  | 55000 | > 20000 | > 20000 | 9400 | 30300 | > 20000 | 727 | 730 | ≥ 50000 |  | 
Cc1cc(C)cc(S(=O)(=O)c2c(C(=O)NC(C)c3cccs3)[nH]c3ccc(Cl)cc23)c1 (stereo unspecified) | 0.2 | 2.1 | 68 | 347 | 2640 | 27 | 79 |  | 32300 |  | 162000 |  |  |  | 
Cc1cc(C)cc(S(=O)(=O)c2c(C(=O)NC(C)c3cccnc3)[nH]c3ccc(Cl)cc23)c1 (racemic) | 0.6 | 34 | 220 |  | 8480 | 100 | 120 | 20 | 54600 | > 20000 | 91000 | 6.6 | > 10000 | 20 | 
O=C(NCc1ccncc1)c1[nH]c2ccc(Cl)cc2c1S(=O)(=O)c1c(Cl)cccc1Cl | 0.81 | 5260 | 2530 | > 50500 | > 50500 |  |  |  | > 50300 |  | > 62400 |  |  |  | 
Cc1ccnc2c1NC(=O)c1cccnc1N2C1CC1 [NEVIRAPINE] | 112 | > 3760 | > 3760 | > 3760 | > 3760 |  |  |  | > 18800 |  |  |  |  | 60 | 
Cc1cc(C)cc(S(=O)(=O)c2c(C(=O)NC(C)c3ccccc3)[nH]c3ccc(Cl)cc23)c1 (stereo unspecified) |  |  |  |  |  |  |  | 70 | > 53500 | 8230 | > 206000 |  | > 10000 | 26 | 
Cc1cccc(C)c1S(=O)(=O)c1c(C(N)=O)[nH]c2ccc(Cl)cc12 | 44.1 | > 49400 | 42700 | > 48900 | > 48900 |  |  |  | > 48900 |  | > 1110 |  |  |  | 
Cc1cc(C)cc(S(=O)(=O)c2c(C(=O)NCCc3ccccc3)[nH]c3ccc(Cl)cc23)c1 | 2.1 | 21 | 107 | > 36400 | > 53500 |  |  |  | 37900 | > 20000 | 18000 |  |  |  | 
Cc1cc(C)cc(S(=O)(=O)c2c(C(=O)NCc3ccccc3)[nH]c3ccc(Cl)cc23)c1 | 0.22 | 0.9 |  | 90 | 1920 |  | > 20000 |  | 38000 | > 20000 | 173000 |  |  |  | 
Cc1cc(C)cc(S(=O)(=O)c2c(C(=O)Nc3cccc(N)c3)[nH]c3ccc(Cl)cc23)c1 | 0.22 | 4.4 | 66 | 947 | 2140 | 19 | 310 |  | 23800 | 226 | 108000 | 17 |  | 57 | 
Cc1cc(C)cc(S(=O)(=O)c2c(C(=O)NC(C)c3ccccn3)[nH]c3ccc(Cl)cc23)c1 (racemic) | 0.6 | 34 | 230 |  | 6000 | 64 | 100 | 30 | 54600 | 11100 | 91000 | 3.2 | > 10000 | 45 | 
Cc1cccc(C)c1S(=O)(=O)c1c(C(=O)NCc2ccncc2)[nH]c2ccc(Cl)cc12 | 330 | > 55100 | > 55100 | > 55100 | > 55100 |  |  |  | > 55100 |  | > 167 |  |  |  | 
NC(=O)c1[nH]c2ccc(Cl)cc2c1S(=O)(=O)c1c(Cl)cccc1Cl | 0.25 | > 16000 | 5170 | > 16000 | 16000 |  |  |  | 16000 |  | 64100 |  |  |  | 
O=C1Nc2ccc(Cl)cc2[C@@](C#CC2CC2)(C(F)(F)F)O1 [EFAVIRENZ] |  |  |  |  | > 317 |  |  |  | > 15800 |  |  |  |  | 22 | 
Cc1cc(C)cc(S(=O)(=O)c2c(C(=O)NN(C)c3ccccc3)[nH]c3ccc(Cl)cc23)c1 | 2.1 | 64.1 | 1470 | > 42700 | > 42700 | 16 | 234 |  | 44100 | > 20000 | 21000 |  |  |  | 
Cc1cc(C)cc(S(=O)(=O)c2c(C(=O)Nc3ccncc3)[nH]c3ccc(Cl)cc23)c1 | 0.23 |  | 16 | 1270 | > 20600 |  |  |  | 20600 |  | 89600 |  |  |  | 
Cc1cc(C)cc(S(=O)(=O)c2c(C(=O)NCCc3cccs3)[nH]c3ccc(Cl)cc23)c1 | 0.84 | 21 | 160 |  | > 52900 | 70 | 42 | 1 | > 52900 | > 20000 | > 62900 | 3.4 | > 50000 | 5.4 | 
Cc1cc(C)cc(S(=O)(=O)c2c(C(=O)NCc3cccs3)[nH]c3ccc(Cl)cc23)c1 | 0.7 | 9.1 | 160 |  | > 54500 | 30 | > 20000 | 100 | > 54500 | > 20000 | > 77800 | 5.2 | > 10000 | 7.1 | 
Cc1cc(C#N)cc(C)c1Oc1nc(Nc2ccc(C#N)cc2)nc(N)c1Br [ETRAVIRINE] | 3.7 | 16 | 6 | 33 | 16 |  |  |  | > 30600 |  |  |  |  |  | 
Cc1cc(C)cc(S(=O)(=O)c2c(C(=O)NC(C)c3ccncc3)[nH]c3ccc(Cl)cc23)c1 (racemic) | 0.2 | 9.4 | 87 |  | 1110 | 40 | 220 | 30 | 30200 | 3550 | 151000 | 4.1 | > 10000 | 4.7 | IC50 [6]: 3500 nM; IC50 [7]: 40 nM
Cc1cc(C)cc(S(=O)(=O)c2c(C(=O)NCCn3c([N+](=O)[O-])cnc3C)[nH]c3ccc(Cl)cc23)c1 | 0.62 | 140 | 670 |  | > 48500 | 44 | 640 | 160 | 25400 | 131 | 40900 | 4.1 | > 10000 | 140 | 
Cc1cc(C)cc(S(=O)(=O)c2c(C(=O)NCc3ccco3)[nH]c3ccc(Cl)cc23)c1 | 0.2 |  | 0.8 | 45 | 971 | 3 | 9 |  | > 56400 | 234 | > 282000 |  |  |  | 
